Results: ChEMBL document CHEMBL3872220, “Amphiphilic xanthones as a potent chemical entity of anti-mycobacterial agents with membrane-targeting properties” (Eur J Med Chem, 2016)
Values after ≈ are worked out from the molar mass of the structure shown.

Assays:
[1] = system: Mycolicibacterium smegmatis; assay: Antimycobacterial activity against Mycobacterium smegmatis MC2 155 after 24 hrs by broth dilution assay; type: functional; conditions: str. MC2 155, 24 h
[2] = Hemolytic activity against New Zealand white rabbit RBC assessed as hemoglobin release measured after 1 hr; type: ADME, cell-based, Oryctolagus cuniculus, Erythrocyte; conditions: red blood cells
[3] = Oral bioavailability in Sprague-Dawley rat; type: ADME, organism-based; conditions: in vivo
[4] = system: Mycobacterium tuberculosis; assay: Antimycobacterial activity against Mycobacterium tuberculosis H37Ra measured after 7 days by alamar blue assay; type: functional; conditions: 168 h
[5] = Cytotoxicity against human MRC5 SV2 cells measured after 72 hrs by resazurin based fluorescence assay; type: toxicity, cell-based
[6] = system: Mycobacterium intracellulare; assay: Antimycobacterial activity against Mycobacterium intracellulare by CLSI method; type: functional
Mycobacterium xenopi = assay: Antimycobacterial activity against Mycobacterium xenopi by CLSI method; type: functional
[7] = system: Mycolicibacterium smegmatis; assay: Antimycobacterial activity against Mycobacterium smegmatis by CLSI method; type: functional
Mycobacteroides chelonae = assay: Antimycobacterial activity against Mycobacterium chelonae by CLSI method; type: functional
Staphylococcus aureus [8] = assay: Antibacterial activity against methicillin-resistant Staphylococcus aureus isolate DM21455; type: functional
Staphylococcus aureus [9] = assay: Antibacterial activity against Staphylococcus aureus isolate DM4001; type: functional
[10] = system: Mycolicibacterium smegmatis; assay: Bactericidal activity against Mycobacterium smegmatis MC2 155 assessed as log reduction in bacterial colonies up to 8 times MIC measured after 24 hrs by time-kill assay; type: functional, str. MC2 155
[11] = system: Mycolicibacterium smegmatis; assay: Antimycobacterial activity against Mycobacterium smegmatis MC2 155 assessed as inhibition of respiratory ATP synthesis by measuring ATP level at 4 times MIC measured after 6 hrs by luciferase reporter gene assay (reference value: 152%); type: functional, str. MC2 155; design: scale not given: the % may be the effect or the level left
[12] = system: Mycolicibacterium smegmatis; assay: Antimycobacterial activity against Mycobacterium smegmatis MC2 155 assessed as inhibition of respiratory ATP synthesis by measuring ATP level at 2 times MIC measured after 3 hrs by luciferase reporter gene assay (reference value: 158.3%); type: functional, str. MC2 155; design: scale not given: the % may be the effect or the level left
[13] = system: Mycolicibacterium smegmatis; assay: Antimycobacterial activity against Mycobacterium smegmatis MC2 155 assessed as inhibition of respiratory ATP synthesis by measuring ATP level at 4 times MIC measured after 1 hr by luciferase reporter gene assay (reference value: 90.6%); type: functional, str. MC2 155; design: scale not given: the % may be the effect or the level left
[14] = system: Mycolicibacterium smegmatis; assay: Antimycobacterial activity against Mycobacterium smegmatis MC2 155 assessed as inhibition of respiratory ATP synthesis by measuring ATP level at 4 times MIC measured after 6 hrs by luciferase reporter gene assay (reference value: 212.7%); type: functional, str. MC2 155; design: scale not given: the % may be the effect or the level left
CYP3A4 = CYP3A4 (Homo sapiens, UniProt P08684); assay: Inhibition of CYP3A4 in human liver microsomes at 10 uM using midazolam as substrate preincubated for 5 min followed by NADPH addition measured after 10 mins by LC-MS/MS method relative to control; type: ADME; conditions: probe midazolam
CYP3A4, sequence (P08684 whole entry): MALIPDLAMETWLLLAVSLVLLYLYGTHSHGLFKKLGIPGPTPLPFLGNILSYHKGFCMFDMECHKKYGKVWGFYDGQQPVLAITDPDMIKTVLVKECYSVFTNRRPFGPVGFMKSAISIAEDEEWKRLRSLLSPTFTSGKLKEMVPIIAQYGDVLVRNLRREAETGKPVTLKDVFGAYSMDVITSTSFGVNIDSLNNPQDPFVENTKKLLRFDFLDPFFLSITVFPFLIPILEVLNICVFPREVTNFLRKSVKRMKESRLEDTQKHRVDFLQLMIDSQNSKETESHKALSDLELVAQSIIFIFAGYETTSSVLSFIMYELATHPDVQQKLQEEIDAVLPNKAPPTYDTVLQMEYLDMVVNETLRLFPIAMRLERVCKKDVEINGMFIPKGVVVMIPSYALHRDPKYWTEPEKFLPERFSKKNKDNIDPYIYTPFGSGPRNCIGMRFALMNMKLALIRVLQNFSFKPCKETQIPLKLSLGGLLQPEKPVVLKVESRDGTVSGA

[15] = Cytotoxicity against human corneal fibroblasts assessed as reduction in ATP level measured after 4 hrs by Celltiter-Glo luminescent assay; type: toxicity, Corneal fibroblast
CYP2C19 = CYP2C19 (Homo sapiens, UniProt P33261); assay: Inhibition of CYP2C19 in human liver microsomes at 10 uM using omeprazole as substrate preincubated for 5 min followed by NADPH addition measured after 10 mins by LC-MS/MS method relative to control; type: ADME; conditions: probe omeprazole
CYP2C19, sequence (P33261 whole entry): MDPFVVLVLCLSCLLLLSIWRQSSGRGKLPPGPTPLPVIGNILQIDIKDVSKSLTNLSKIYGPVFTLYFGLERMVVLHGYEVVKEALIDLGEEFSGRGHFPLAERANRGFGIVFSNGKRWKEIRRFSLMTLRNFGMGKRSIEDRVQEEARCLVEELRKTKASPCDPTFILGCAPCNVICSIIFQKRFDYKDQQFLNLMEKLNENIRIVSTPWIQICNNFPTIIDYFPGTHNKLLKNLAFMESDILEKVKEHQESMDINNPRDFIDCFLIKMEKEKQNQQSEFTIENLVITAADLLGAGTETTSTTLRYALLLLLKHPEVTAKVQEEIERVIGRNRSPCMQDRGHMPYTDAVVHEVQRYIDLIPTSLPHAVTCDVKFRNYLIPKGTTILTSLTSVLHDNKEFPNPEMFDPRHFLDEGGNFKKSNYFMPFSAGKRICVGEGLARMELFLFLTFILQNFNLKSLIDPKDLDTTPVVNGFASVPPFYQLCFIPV

[16] = Drug metabolism in rat liver microsomes at 1 uM preincubated for 5 mins followed by NADPH addition measured up to 30 mins by LC-MS/MS method; type: ADME; conditions: read-out: Drug metabolism
CYP2D6 = CYP2D6 (Homo sapiens, UniProt P10635); assay: Inhibition of CYP2D6 in human liver microsomes at 10 uM using bufuralol as substrate preincubated for 5 min followed by NADPH addition measured after 10 mins by LC-MS/MS method relative to control; type: ADME; conditions: probe bufuralol
CYP2D6, sequence (P10635 whole entry): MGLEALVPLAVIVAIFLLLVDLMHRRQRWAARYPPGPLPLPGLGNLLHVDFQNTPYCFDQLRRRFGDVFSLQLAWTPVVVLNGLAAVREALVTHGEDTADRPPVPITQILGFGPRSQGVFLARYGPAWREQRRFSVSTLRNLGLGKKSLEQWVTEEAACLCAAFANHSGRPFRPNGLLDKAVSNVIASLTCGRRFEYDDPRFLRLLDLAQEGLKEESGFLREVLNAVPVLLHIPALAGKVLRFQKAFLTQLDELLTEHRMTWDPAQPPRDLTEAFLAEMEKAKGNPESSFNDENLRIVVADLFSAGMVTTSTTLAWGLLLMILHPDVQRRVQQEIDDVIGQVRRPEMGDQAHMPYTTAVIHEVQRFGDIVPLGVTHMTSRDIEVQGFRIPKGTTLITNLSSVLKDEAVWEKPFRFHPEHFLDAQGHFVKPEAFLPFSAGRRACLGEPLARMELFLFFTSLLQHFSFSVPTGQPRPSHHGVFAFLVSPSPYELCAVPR

[17] = Cytotoxicity against human corneal fibroblasts assessed as increase in LDH level measured after 4 hrs by Cytotox-one […] assay; type: toxicity, Corneal fibroblast
[18] = Half life in rat liver microsomes at 1 uM preincubated for 5 mins followed by NADPH addition measured by LC-MS/MS method; type: ADME

With `CCN(CC)CCCCOc1ccc2c(=O)c3c(O)cc(OCCCCN(CC)CC)cc3oc2c1` the MIC90 [1] was over 30 µM and the HC50 at 1 h [2] was over 401 µM.
With `CCCCN(CC)CCCCOc1cc2oc3cc(OCCCCN(CC)CCCC)c(OC)c(CC=C(C)C)c3c(=O)c2c(O)c1CC=C(C)C` the MIC90 [1] was over 30 µM and the HC50 at 1 h [2] was over 277 µM.
Molecule `CO[C@H]1/C=C/O[C@@]2(C)Oc3c(C)c(O)c4c(c3C2=O)C2=NC3(CCN(CC(C)C)CC3)NC2=C(NC(=O)/C(C)=C\C=C\[C@H](C)[C@H](O)[C@@H](C)[C@@H](O)[C@@H](C)[C@H](OC(C)=O)[C@@H]1C)C4=O` [RIFABUTIN] has a bioavailability [3] of 20%.
`COc1c(O)cc2oc3cc(O)c(CC=C(C)C)c(O)c3c(=O)c2c1CC=C(C)C` [MANGOSTIN] showed an MIC [4] of 6.25 µg/mL (≈ 15.2 µM), a CC50 at 72 h [5] of 7.5 µM and an MIC [6] of 3.7 µM (≈ 1.52 µg/mL). For the same molecule, the MIC (Mycobacterium xenopi) was 3.7 µM (≈ 1.52 µg/mL), the MIC [7] was 3.7 µM (≈ 1.52 µg/mL) and the MIC (Mycobacteroides chelonae) was 3.7 µM (≈ 1.52 µg/mL).
In the case of `COc1c(OCC(O)CNCCNCCNCCN)cc2oc3cc(OCC(O)CNCCNCCNCCN)c(CC=C(C)C)c(O)c3c(=O)c2c1CC=C(C)C` (stereo not drawn), the MIC90 [1] is reported as over 30 µM, the HC50 at 1 h [2] is reported as 155 µM and the MIC (Staphylococcus aureus [8]) is reported as 15 µM (≈ 12.2 µg/mL). The MIC (Staphylococcus aureus [9]) was 15 µM (≈ 12.2 µg/mL).
For `COc1c(OCCCCN(C)C)cc2oc3cc(OCCCCN(C)C)c(CCC(C)C)c(O)c3c(=O)c2c1CCC(C)C`, the MIC90 [1] was 6.4 µM (≈ 3.92 µg/mL).
In the case of `NNC(=O)c1ccncc1` [ISONIAZID], the MIC90 [1] is reported as 15 µM (≈ 2.06 µg/mL) and the Activity [10] is reported as 1.2.
Work on `CCN(CC)CCCCOc1cc2oc3cc(OCCCCN(CC)CC)c(OC)c(CCC(C)C)c3c(=O)c2c(O)c1CCC(C)C` yielded an MIC90 [1] of 6.4 µM (≈ 4.28 µg/mL).
Work on `CC[C@@H](CO)NCCN[C@@H](CC)CO` [ETHAMBUTOL] yielded an Activity [11] of 71.3%, an MIC90 [1] of 1.25 µM (≈ 0.255 µg/mL) and an Activity [12] of 13.1%. It also gave an Activity [13] of 113.5% and an Activity [14] of 79.7%.
For `CN[C@@H]1[C@H](O[C@H]2[C@H](O[C@H]3[C@H](O)[C@@H](O)[C@H](N=C(N)N)[C@@H](O)[C@@H]3N=C(N)N)O[C@@H](C)[C@]2(O)C=O)O[C@@H](CO)[C@H](O)[C@H]1O` [STREPTOMYCIN], the Activity [11] was 59.9%, the MIC90 [1] was 0.625 µM (≈ 0.363 µg/mL) and the Activity [12] was 75.7%. For the same molecule, the Activity [13] was 114.4% and the Activity [14] was 75.7%.
With `COc1c(OCC(=O)NC(CCCNC(=N)N)C(N)=O)cc2oc3cc(OCC(=O)NC(CCCNC(=N)N)C(N)=O)c(CC=C(C)C)c(O)c3c(=O)c2c1CC=C(C)C` (stereo not drawn) the MIC90 [1] was over 30 µM, the inhibition at 10 min, 10 µM (CYP3A4) was 42% and the HC50 at 1 h [2] was 183 µM. It also gave a CC50 at 4 h [15] of 60.1 µM, an inhibition at 10 min, 10 µM (CYP2C19) of 3% and a metabolised at 0.5 h, 1 µM [16] of 14.4%. For the same molecule, the inhibition at 10 min, 10 µM (CYP2D6) was 2%, the CC50 at 4 h [17] was 119 µM and the half-life at 1 µM [18] was over 30 min.
For `COc1c(OCC(O)CNCCN)cc2oc3cc(OCC(O)CNCCN)c(CC=C(C)C)c(O)c3c(=O)c2c1CC=C(C)C` (stereo not drawn), the MIC90 [1] was over 30 µM, the HC50 at 1 h [2] was 125 µM and the MIC (Staphylococcus aureus [8]) was 5 µM (≈ 3.21 µg/mL). For the same molecule, the MIC (Staphylococcus aureus [9]) was 10 µM (≈ 6.43 µg/mL).
`CO[C@H]1/C=C/O[C@@]2(C)Oc3c(C)c(O)c4c(O)c(c(/C=N/N5CCN(C)CC5)c(O)c4c3C2=O)NC(=O)/C(C)=C\C=C\[C@H](C)[C@H](O)[C@@H](C)[C@@H](O)[C@@H](C)[C@H](OC(C)=O)[C@@H]1C` [RIFAMPIN] showed an Activity [11] of 66.5%, an MIC90 [1] of 2.5 µM (≈ 2.06 µg/mL) and an Activity [12] of 95.6%. For the same molecule, the Activity [13] was 123.4%.
Molecule `CCCN(CCC)CC(O)COc1cc2oc3cc(OCC(O)CN(CCC)CCC)c(OC)c(CC=C(C)C)c3c(=O)c2c(O)c1CC=C(C)C` (stereo not drawn) has an MIC90 [1] of over 30 µM and an HC50 at 1 h [2] of over 276 µM.
